Laboratory results taken from US20220187282A1, “CARDIOMYOCYTE PROLIFERATION” (The Council of the Queensland Institute of Medical Research, priority 2019, published 2022).
Where two headings read alike, the source gives them in different places.

Assays:
Type in all cases: biochemical
kinases [1] = target: kinases (Homo sapiens, UniProt O00444); details: PLK4 FRET-Lantha SP; Test Conc(μM) 1
kinases [2] = target: kinases (Homo sapiens, UniProt O14976); details: GAK FRET-Lantha SP; Test Conc(μM) 1
kinases [3] = target: kinases (Homo sapiens, UniProt O15264); details: MAPK13 (p38 delta) Z-Lyte SP; Test Conc(μM):ATP Conc(μM) 1:10
kinases [4] = target: kinases (Homo sapiens, UniProt O43353); details: RIPK2 FRET-Lantha SP; Test Conc(μM) 1
kinases [5] = target: kinases (Homo sapiens, UniProt P07948); details: LYN A Hu Phos FRET-Z-Lyte SP; Test Conc(μM):ATP Conc(μM) 1:25
kinases [6] = target: kinases (Homo sapiens, UniProt P08922); details: ROS1 FRET-Z-Lyte SP; Test Conc(μM):ATP Conc(μM) 1:50
kinases [7] = target: kinases (Homo sapiens, UniProt P15056)
kinases [8] = target: kinases (Homo sapiens, UniProt P19784); details: CSNK2A2 (CK2alpha2) Z-Lyte SP; Test Conc(μM):ATP Conc(μM) 1:50
kinases [9] = target: kinases (Homo sapiens, UniProt P22455); details: FGFR4 *Mn* FRET-Z-Lyte SP; Test Conc(μM):ATP Conc(μM) 1:150
kinases [10] = target: kinases (Homo sapiens, UniProt P23443); details: RPS6KB1 (p70S6K) Z-Lyte SP; Test Conc(μM):ATP Conc(μM) 1:10
kinases [11] = target: kinases (Homo sapiens, UniProt P23458); details: JAK1 FRET-Z-Lyte SP; Test Conc(μM):ATP Conc(μM) 1:75
kinases [12] = target: kinases (Homo sapiens, UniProt P29320); details: EPHA3 FRET-Lantha SP; Test Conc(μM) 1
kinases [13] = target: kinases (Homo sapiens, UniProt P29323); details: EPHB2 FRET-Z-Lyte SP; Test Conc(μM):ATP Conc(μM) 1:75
kinases [14] = target: kinases (Homo sapiens, UniProt Q06418); details: TYRO3 (RSE) FRET-Z-Lyte SP; Test Conc(μM):ATP Conc(μM) 1:25
kinases [15] = target: kinases (Homo sapiens, UniProt Q13237); details: PRKG2 (PKG2) FRET-Z-Lyte SP; Test Conc(μM):ATP Conc(μM) 1:150
kinases [16] = target: kinases (Homo sapiens, UniProt Q15303); details: ERBB4 (HER4) *Mn* Z-Lyte SP; Test Conc(μM):ATP Conc(μM) 1:5
kinases [17] = target: kinases (Homo sapiens, UniProt Q16288); details: NTRK3 (TRKC) FRET-Z-Lyte SP; Test Conc(μM):ATP Conc(μM) 1:50
kinases [18] = target: kinases (Homo sapiens, UniProt Q16620); details: NTRK2 (TRKB) *Mn* Z-Lyte SP; Test Conc(μM):ATP Conc(μM) 1:25
kinases [19] = target: kinases (Homo sapiens, UniProt Q86V86); details: PIM3 FRET-Z-Lyte SP; Test Conc(μM):ATP Conc(μM) 1:1000
kinases [20] = target: kinases (Homo sapiens, UniProt Q8IW41); details: MAPKAPK5 (PRAK) FRET-Z-Lyte SP; Test Conc(μM):ATP Conc(μM) 1:10
kinases [21] = target: kinases (Homo sapiens, UniProt Q8N4C8); details: MINK1 FRET-Z-Lyte SP; Test Conc(μM):ATP Conc(μM) 1:25
kinases [22] = target: kinases (Homo sapiens, UniProt Q8N5S9); details: CAMKK1 (Alpha) FRET-Lantha SP; Test Conc(μM) 1
kinases [23] = target: kinases (Homo sapiens, UniProt Q99640); details: PKMYT1 FRET-Lantha SP; Test Conc(μM) 1
kinases [24] = target: kinases (Homo sapiens, UniProt Q9H2K8); details: TAOK3 (JIK) FRET-Lantha SP; Test Conc(μM) 1
kinases [25] = target: kinases (Homo sapiens, UniProt Q9H3Y6); details: SRMS (Srm) FRET-Z-Lyte SP; Test Conc(μM):ATP Conc(μM) 1:150
kinases [26] = target: kinases (Homo sapiens, UniProt Q9HCP0); details: CSNK1G1 (CK1gamma1) Z-Lyte SP; Test Conc(μM):ATP Conc(μM) 1:5
kinases [27] = target: kinases (Homo sapiens, UniProt Q9NYA1); details: SPHK1 FRET-Adapta SP; Test Conc(μM):ATP Conc(μM) 1:10
kinases [28] = target: kinases (Homo sapiens, UniProt Q9UKI8); details: TLK1 FRET-Lantha SP; Test Conc(μM) 1
[29] = bRAF Cascade FRET-Z-Lyte SP, Test Conc(μM):ATP Conc(μM) 1:100
[30] = bRAF FRET-Lantha SP, Test Conc(μM) 1

kinases (Homo sapiens, UniProt P15056), sequence (P15056 whole entry): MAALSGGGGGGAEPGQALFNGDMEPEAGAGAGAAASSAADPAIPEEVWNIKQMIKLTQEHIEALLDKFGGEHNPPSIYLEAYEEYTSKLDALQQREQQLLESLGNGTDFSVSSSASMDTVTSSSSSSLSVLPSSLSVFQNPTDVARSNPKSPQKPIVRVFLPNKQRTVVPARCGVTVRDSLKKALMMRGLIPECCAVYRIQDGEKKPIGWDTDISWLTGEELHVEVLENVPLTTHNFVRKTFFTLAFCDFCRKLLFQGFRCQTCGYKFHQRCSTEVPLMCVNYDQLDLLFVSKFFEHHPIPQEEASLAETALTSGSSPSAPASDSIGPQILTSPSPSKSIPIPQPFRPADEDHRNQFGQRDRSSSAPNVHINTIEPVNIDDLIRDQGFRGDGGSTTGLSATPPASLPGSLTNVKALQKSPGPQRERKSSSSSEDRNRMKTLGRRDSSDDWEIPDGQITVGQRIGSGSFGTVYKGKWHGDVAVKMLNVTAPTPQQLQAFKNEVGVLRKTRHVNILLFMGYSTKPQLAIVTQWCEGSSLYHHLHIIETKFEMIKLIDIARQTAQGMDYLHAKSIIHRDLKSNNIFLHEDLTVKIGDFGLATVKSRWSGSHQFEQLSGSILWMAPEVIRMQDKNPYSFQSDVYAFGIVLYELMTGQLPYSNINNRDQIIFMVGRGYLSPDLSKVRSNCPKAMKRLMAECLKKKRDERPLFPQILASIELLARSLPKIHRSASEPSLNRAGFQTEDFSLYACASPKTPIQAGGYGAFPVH
kinases (Homo sapiens, UniProt Q16620), sequence (Q16620 32-822): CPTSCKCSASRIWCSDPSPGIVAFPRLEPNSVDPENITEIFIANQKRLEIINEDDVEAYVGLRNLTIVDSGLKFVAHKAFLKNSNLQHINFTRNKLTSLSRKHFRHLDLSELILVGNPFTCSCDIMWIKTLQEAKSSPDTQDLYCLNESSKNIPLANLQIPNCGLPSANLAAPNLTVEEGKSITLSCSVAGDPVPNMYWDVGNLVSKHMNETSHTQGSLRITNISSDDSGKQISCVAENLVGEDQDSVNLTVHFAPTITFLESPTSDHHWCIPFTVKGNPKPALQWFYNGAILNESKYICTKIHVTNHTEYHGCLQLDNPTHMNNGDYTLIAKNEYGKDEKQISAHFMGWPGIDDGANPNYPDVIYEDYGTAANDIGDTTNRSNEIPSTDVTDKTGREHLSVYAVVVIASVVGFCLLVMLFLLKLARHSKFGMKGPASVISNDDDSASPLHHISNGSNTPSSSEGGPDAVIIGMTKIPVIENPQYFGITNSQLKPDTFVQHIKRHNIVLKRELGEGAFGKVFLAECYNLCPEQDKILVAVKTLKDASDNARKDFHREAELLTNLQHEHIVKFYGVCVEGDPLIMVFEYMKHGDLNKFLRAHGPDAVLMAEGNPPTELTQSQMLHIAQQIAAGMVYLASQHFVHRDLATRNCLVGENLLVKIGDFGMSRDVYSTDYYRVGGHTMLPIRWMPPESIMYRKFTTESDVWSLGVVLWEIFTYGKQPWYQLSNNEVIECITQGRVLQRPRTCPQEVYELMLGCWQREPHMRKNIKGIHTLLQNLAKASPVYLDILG
kinases (Homo sapiens, UniProt Q15303), sequence (Q15303 26-1308): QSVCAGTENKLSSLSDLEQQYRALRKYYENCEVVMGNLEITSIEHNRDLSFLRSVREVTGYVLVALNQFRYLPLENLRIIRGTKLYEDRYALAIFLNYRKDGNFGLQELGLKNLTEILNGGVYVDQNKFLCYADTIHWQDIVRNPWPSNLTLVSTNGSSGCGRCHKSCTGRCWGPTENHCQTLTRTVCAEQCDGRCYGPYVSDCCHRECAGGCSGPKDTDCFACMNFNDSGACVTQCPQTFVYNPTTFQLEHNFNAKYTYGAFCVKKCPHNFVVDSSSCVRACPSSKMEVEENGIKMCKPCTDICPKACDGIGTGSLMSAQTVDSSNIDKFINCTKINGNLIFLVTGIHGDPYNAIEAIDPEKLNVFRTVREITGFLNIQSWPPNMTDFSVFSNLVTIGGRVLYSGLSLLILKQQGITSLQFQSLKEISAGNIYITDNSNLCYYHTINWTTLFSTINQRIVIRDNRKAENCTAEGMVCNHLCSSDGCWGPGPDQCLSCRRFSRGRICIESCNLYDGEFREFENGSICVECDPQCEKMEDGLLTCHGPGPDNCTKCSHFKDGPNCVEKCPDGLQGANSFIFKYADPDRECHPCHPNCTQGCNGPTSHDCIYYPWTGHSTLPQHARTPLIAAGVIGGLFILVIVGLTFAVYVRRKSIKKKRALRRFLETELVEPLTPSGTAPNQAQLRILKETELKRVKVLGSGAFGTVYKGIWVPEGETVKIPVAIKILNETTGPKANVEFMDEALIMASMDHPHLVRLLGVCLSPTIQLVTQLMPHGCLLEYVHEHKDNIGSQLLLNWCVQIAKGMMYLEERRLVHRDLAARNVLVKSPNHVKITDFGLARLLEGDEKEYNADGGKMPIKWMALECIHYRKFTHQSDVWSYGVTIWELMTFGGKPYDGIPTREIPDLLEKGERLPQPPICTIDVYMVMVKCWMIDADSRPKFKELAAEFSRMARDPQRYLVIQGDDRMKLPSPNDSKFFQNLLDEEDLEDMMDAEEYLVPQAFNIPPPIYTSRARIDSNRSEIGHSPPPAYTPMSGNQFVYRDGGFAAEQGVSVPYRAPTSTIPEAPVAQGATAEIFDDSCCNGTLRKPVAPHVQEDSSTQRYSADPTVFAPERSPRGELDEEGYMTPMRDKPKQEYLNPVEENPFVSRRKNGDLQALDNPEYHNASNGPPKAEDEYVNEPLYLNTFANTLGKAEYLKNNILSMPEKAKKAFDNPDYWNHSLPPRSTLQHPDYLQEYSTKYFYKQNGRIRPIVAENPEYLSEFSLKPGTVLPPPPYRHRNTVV
kinases (Homo sapiens, UniProt P19784), sequence (P19784 whole entry): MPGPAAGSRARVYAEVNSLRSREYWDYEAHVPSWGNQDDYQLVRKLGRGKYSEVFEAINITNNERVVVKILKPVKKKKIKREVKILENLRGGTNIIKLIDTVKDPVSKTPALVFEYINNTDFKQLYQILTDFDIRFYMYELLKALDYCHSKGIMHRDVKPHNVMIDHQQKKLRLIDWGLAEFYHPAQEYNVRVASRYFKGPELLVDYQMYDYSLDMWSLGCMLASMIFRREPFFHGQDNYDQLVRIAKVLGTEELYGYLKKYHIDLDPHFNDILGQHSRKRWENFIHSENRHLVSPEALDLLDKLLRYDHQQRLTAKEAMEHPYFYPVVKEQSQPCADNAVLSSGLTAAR
kinases (Homo sapiens, UniProt Q06418), sequence (Q06418 41-890): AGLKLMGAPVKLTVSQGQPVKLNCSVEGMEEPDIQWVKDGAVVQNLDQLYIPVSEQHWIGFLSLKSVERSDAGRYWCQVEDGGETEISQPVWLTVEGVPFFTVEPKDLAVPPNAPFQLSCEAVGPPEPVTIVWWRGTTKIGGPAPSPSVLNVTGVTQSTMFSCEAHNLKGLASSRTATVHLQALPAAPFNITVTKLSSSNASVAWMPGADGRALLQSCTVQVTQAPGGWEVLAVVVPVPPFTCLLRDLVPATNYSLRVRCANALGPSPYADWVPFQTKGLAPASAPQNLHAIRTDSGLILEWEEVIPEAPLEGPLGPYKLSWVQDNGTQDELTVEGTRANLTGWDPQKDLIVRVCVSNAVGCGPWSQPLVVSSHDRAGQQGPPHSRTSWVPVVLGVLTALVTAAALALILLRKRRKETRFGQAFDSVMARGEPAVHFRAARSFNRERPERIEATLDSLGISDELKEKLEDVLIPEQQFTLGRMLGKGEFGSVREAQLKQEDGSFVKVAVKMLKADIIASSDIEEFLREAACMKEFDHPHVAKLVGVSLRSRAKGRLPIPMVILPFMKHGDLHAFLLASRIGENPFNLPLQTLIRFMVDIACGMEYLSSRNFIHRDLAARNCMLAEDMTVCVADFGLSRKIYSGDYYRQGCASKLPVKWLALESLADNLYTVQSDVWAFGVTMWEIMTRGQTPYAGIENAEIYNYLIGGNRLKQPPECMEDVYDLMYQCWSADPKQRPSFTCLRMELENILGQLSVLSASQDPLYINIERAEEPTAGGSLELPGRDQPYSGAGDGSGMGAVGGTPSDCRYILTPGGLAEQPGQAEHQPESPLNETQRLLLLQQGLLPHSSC
kinases (Homo sapiens, UniProt Q9H2K8), sequence (Q9H2K8 whole entry): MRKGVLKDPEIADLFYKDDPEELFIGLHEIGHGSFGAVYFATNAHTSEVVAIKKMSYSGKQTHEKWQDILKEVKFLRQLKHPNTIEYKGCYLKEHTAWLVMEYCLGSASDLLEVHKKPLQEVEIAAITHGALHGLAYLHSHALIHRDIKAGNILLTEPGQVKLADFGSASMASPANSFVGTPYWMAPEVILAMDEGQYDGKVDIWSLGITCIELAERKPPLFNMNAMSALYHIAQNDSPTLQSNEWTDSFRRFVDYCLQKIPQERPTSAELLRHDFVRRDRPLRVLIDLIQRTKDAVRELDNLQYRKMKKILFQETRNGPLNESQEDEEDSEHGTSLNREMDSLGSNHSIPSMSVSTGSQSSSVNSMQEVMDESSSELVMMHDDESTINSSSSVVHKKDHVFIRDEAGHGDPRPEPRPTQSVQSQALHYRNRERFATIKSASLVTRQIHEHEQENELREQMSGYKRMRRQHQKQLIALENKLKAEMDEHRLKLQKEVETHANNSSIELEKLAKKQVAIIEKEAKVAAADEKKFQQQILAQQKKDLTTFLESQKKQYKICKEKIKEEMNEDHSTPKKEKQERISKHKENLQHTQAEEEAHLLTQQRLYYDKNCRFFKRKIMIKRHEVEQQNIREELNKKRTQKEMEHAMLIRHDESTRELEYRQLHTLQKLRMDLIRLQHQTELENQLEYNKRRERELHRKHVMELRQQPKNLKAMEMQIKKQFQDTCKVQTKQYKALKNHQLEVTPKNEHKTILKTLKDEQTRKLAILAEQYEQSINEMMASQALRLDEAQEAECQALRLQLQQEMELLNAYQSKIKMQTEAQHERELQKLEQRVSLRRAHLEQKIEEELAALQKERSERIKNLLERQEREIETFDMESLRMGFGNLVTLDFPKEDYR

## Cc1ccc(NC(=O)c2ccnc(N3CCOCC3)c2)cc1Nc1ccnc(N2CC(C)OC(C)C2)n1 (stereo not shown) [compound 3]
Kinases [1]
  Mean Inhib (%): 0.2%
Kinases [2]
  Mean Inhib (%): 29.0%
Kinases [3]
  Mean Inhib (%): 4.7%
Kinases [4]
  Mean Inhib (%): 13.0%
Kinases [5]
  Mean Inhib (%): 6.3%
Kinases [6]
  Mean Inhib (%): 10.0%
Kinases [7]; [29]
  Mean Inhib (%): 10.3%
Kinases [7]; [30]
  Mean Inhib (%): 66.8%
Kinases [8]
  Mean Inhib (%): 9.9%
Kinases [9]
  Mean Inhib (%): 14.8%
Kinases [10]
  Mean Inhib (%): 4.7%
Kinases [11]
  Mean Inhib (%): −1.9%
Kinases [12]
  Mean Inhib (%): 4.8%
Kinases [13]
  Mean Inhib (%): 6.1%
Kinases [14]
  Mean Inhib (%): 9.3%
Kinases [15]
  Mean Inhib (%): 2.4%
Kinases [16]
  Mean Inhib (%): 0.8%
Kinases [17]
  Mean Inhib (%): 3.5%
Kinases [18]
  Mean Inhib (%): 1.9%
Kinases [19]
  Mean Inhib (%): −1.4%
Kinases [20]
  Mean Inhib (%): −1.3%
Kinases [21]
  Mean Inhib (%): 1.6%
Kinases [22]
  Mean Inhib (%): −7.3%
Kinases [23]
  Mean Inhib (%): 9.3%
Kinases [24]
  Mean Inhib (%): 0.3%
Kinases [25]
  Mean Inhib (%): 6.2%
Kinases [26]
  Mean Inhib (%): 5.2%
Kinases [27]
  Mean Inhib (%): 8.0%
Kinases [28]
  Mean Inhib (%): −4.3%

## Cc1cc(Oc2ccnc(Nc3ccc(S(N)(=O)=O)cc3)c2)c(-c2ccccn2)nc1C [compound 65]
Kinases [1]
  Mean Inhib (%): 6.1%
Kinases [2]
  Mean Inhib (%): 39.3%
Kinases [3]
  Mean Inhib (%): 3.7%
Kinases [4]
  Mean Inhib (%): 64.0%
Kinases [5]
  Mean Inhib (%): 49.5%
Kinases [6]
  Mean Inhib (%): 8.9%
Kinases [7]; [29]
  Mean Inhib (%): 16.7%
Kinases [7]; [30]
  Mean Inhib (%): 10.4%
Kinases [8]
  Mean Inhib (%): 9.5%
Kinases [9]
  Mean Inhib (%): −0.9%
Kinases [10]
  Mean Inhib (%): 1.0%
Kinases [11]
  Mean Inhib (%): 4.3%
Kinases [12]
  Mean Inhib (%): 27.9%
Kinases [13]
  Mean Inhib (%): 58.7%
Kinases [14]
  Mean Inhib (%): 1.4%
Kinases [15]
  Mean Inhib (%): 0.2%
Kinases [16]
  Mean Inhib (%): 3.4%
Kinases [17]
  Mean Inhib (%): 2.7%
Kinases [18]
  Mean Inhib (%): 0.7%
Kinases [19]
  Mean Inhib (%): −2.6%
Kinases [20]
  Mean Inhib (%): 1.9%
Kinases [21]
  Mean Inhib (%): 19.9%
Kinases [22]
  Mean Inhib (%): −6.4%
Kinases [23]
  Mean Inhib (%): −14.5%
Kinases [24]
  Mean Inhib (%): 1.7%
Kinases [25]
  Mean Inhib (%): 1.5%
Kinases [26]
  Mean Inhib (%): −1.9%
Kinases [27]
  Mean Inhib (%): −0.7%
Kinases [28]
  Mean Inhib (%): −4.5%
